Experimental data: article PMC10302146, “Dual Anta-Inhibitors Targeting Protein Kinase CK1δ and A2A Adenosine Receptor Useful in Neurodegenerative Disorders” (Molecules, 2023)

What was measured:
N13 microglial cells [1] = assay: N13 cell viability, ligand pretreatment 60 min then CK cocktail 48 h (CK1δ inhibition protocol); type: cell-based; conditions: for cell vitality: CK cocktail alone 69% ± 0.3 vs. control
N13 microglial cells [2] = assay: N13 cell viability (CellTiter 96 AQueous One, MTS), ligands alone; type: cell-based; conditions: for cell viability: 60 min, alone
Protocol: Starting from these observations, since this double effect could be a suitable strategy for the treatment of chronic neurodegenerative diseases, in which neuroinflammation plays a crucial role, these compounds were tested on an in vitro model of neuroinflammation in comparison with the reference compounds. The experiments were performed using N13 microglial cells. The colorimetric method CellTiter 96® AQueous One Solution Cell Proliferation assay was used to determine the number of live cells in cytotoxicity or proliferation assays. The tetrazole compound MTS was bio-reduced by the cells into formazan, a colored product soluble in the cellular medium. The percentage of cell viability was analyzed through an absorbance reading at 492 nm. The concentrations of ligands were chosen based on the results of binding assays. Specifically, lower, similar, and higher concentrations than the Ki value were used.
Experiments were performed in triplicate.

N13 cell line = assay: Griess assay, nitrite production (antioxidant effect); type: cell-based; conditions: compound 2 4500 nM, ZM241385 10 nM
From the text: In addition, since oxidative stress has received extensive attention as one important entry point in the pathogenesis of neurodegenerative diseases, the potential antioxidant profile of compounds 1 and 2 was investigated. Oxidative stress and neuroinflammation play synergistic roles in the promotion of neurodegenerative disease progression. During a CNS insult, there is an activation of microglial cells, which stimulate immune responses to instigate tissue repair. If the triggering cause of the immune response is eradicated, the immune response resolves, but if the initial stress persists, it will lead to an overproduction of neurotoxic factors such as chemokines and proinflammatory cytokines such as Tumor Necrosis Factor-α (TNF-α) and Interleukin-1β (IL-1β). This pathological state will lead to an overproduction of ROS and a state of oxidative stress. High levels of ROS inactivate or damage proteins, leading to cellular degeneration and death. Furthermore, ROS can activate proinflammatory pathways, further promoting a harmful environment for vulnerable neurons. In light of this, the potential antioxidant capacity of compounds was studied. […] The combination of anti-inflammatory and antioxidant activities makes compound 2 particularly appealing in counteracting two of the factors involved in the pathogenesis of neurodegenerative pathologies.
The N13 cell line was introduced into a 96-well UV-VIS transparent plate at a population of 1 × 10^4 cells per well in 98 μL of DMEM and incubated overnight. […] After 24 h of incubation, the media from each well was transferred into another 96-well plate, and then 50 µL of the sulphanilamide solution was placed into the wells. After 10 min of incubation at room temperature (rt), 50 µL of the NED solution was dispensed to all wells, and the plate was incubated at rt for an additional 5–10 min. After half an hour, absorbance was measured in the microplate reader GENiosPro using a 520–550 nm filter. All measurements were reproduced in 3–5 replicates. The nitric oxide formation was investigated by measuring nitrite (NO^2−), which is one of two primary breakdown products of NO. A nitrite standard reference curve was used for quantitative evaluation of the concentration of NO^2− in samples.

human recombinant A1AR = target: human recombinant A1AR; set-up: method as in PMID 37259317; conditions: [3H]CCPA, membranes from CHO cells stably transfected; means ± standard errors; read-out: KiA1; cited from earlier work
N13 microglial cells [3] = assay: N13 cell viability, CK cocktail 48 h pretreatment then ligand (A2AAR antagonist protocol); conditions: 60 min
Protocol: Given the nature of compounds, dual A2A/CK1δ anta-inhibitors, their neuroprotective effect against a neuroinflammatory insult was investigated following two different approaches aimed at studying the antagonist activity on the A2AAR and the inhibitor effect on CK1δ. […] The concentrations used were 35, 65, and 400 µM at 60 min of incubation.
N13 cells were plated in 96-well plates at the confluence of 1 × 10^4 cells/well and incubated overnight. Cells were divided into two groups in order to study the activity of compounds on A2AAR and CK1δ (Scheme 1). […] Cells of the second group were pretreated with 2 µL at different concentrations of understudy ligand, or the reference compound PF670462, for 30 or 60 min and then with further addition of a proinflammatory cocktail of cytokines for 48 h (Scheme 1). After treatment, 20 µL of CellTiter 96® AQueous One Solution Reagent was added to each well to a final volume of 100 µL. After 1 h of incubation, absorbance was measured at 492 nm in the microplate reader GENiosPro. Cell viability was estimated as the relation between the OD of treated cells and the OD of untreated cells in percentage. An untreated control and a control with the solvent were run. Experiments were performed in triplicate.

human recombinant A3AR = target: human recombinant A3AR; set-up: method as in PMID 37259317; conditions: [3H]HEMADO, membranes from CHO cells stably transfected; means ± standard errors; read-out: KiA3; cited from earlier work
CK1δ = system: CK1δ; set-up: method as in PMID 37259317; conditions: cited from earlier work; for IC50: enzymatic inhibition
human recombinant A2AAR = target: human recombinant A2AAR; set-up: method as in PMID 37259317; conditions: cited from earlier work; for Ki: [3H]NECA, membranes from CHO cells stably transfected, means ± standard errors, read-out: KiA2A

What does the source list for `Nc1nccc(-c2c(-c3ccc(F)cc3)ncn2C2CCCCC2)n1` [PF-670462, reference compound]?
cell vitality (N13 microglial cells [1]; 0.05 µM 60 min before CK cocktail 48 h): 96% ± 3.1; cell vitality (N13 microglial cells [1]; 0.1 µM 60 min before CK cocktail 48 h): 78% ± 3.5; cell viability (N13 microglial cells [1]; 1 µM 60 min before CK cocktail 48 h): no significant decrease in cell viability; cell viability (N13 microglial cells [2]; 0.05 µM): does not affect cell viability; cell viability (N13 microglial cells [2]; 0.1 µM): 75% ± 1.4; cell viability (N13 microglial cells [2]; 1 µM): 60% ± 2.9

With `Nc1nc(NCCc2ccc(O)cc2)nc2nc(-c3ccco3)nn12` [ZM241385, reference compound] as the molecule, how does the “cell viability vs. control” value (N13 microglial cells [2]; 0.01 µM, absence of CK cocktail (reference used at 60 min)) read?
The value was 155% ± 1.9.

What about the “compensation of oxidative stress caused by the CK cocktail” value (N13 cell line) of the same molecule?
Its value is “successfully compensated”.

For `N#CCNc1nc(Cl)nc2c1ncn2C1CCCC1` [compound 3, 2-((2-Chloro-9-cyclopentyl-9H-purin-6-yl)amino)acetonitrile], which Ki (human recombinant A1AR) is on record?
Its Ki is 0.118 ± 0.01 µM.

And the “cell vitality increase up to” value (N13 microglial cells [3]; 400 µM, after CK cocktail (Figure 3))?
Its value is 93 ± 1.1%.

And the “counteraction of CK cocktail effect (cell viability)” value (N13 microglial cells [3]; 35, 65 and 400 µM, after CK cocktail)?
Its value is “able to counteract the effect of the CK cocktail but to a lesser extent than compound 2”.

What about the Ki (human recombinant A3AR) of the same molecule?
The Ki was 0.14 ± 0.035 µM.

What about the “% Residual Activity at 40 μM ± sd” value (CK1δ) of the same molecule?
Its value is 86 ± 1.6%.

What about the “CK1δ inhibition, in words” value (CK1δ) of the same molecule?
The value was “inactive as a CK1δ inhibitor”.

What about the IC50 (CK1δ) of the same molecule?
The IC50 was greater than 40 µM.

What about the Ki (human recombinant A2AAR) of the same molecule?
Its Ki is 0.007 ± 1e-05 µM.

Which results are given for `Nc1nc(Cl)nc2c1nc(-c1ccco1)n2C1CCCC1` [compound 4, 2-chloro-9-cyclopentyl-8-(furan-2-yl)-9H-purin-6-amine]?
viability at 25 µM (N13 microglial cells [1]; N13, 25 µM 60 min before CK cocktail 48 h, CK cocktail alone 78% 1.3 vs. control (Figure 7)): 108%; viability at 50 µM (N13 microglial cells [1]; N13, 50 µM 60 min before CK cocktail 48 h, CK cocktail alone 78% 1.3 vs. control): 102%; viability at 500 µM (N13 microglial cells [1]; N13, 500 µM 60 min before CK cocktail 48 h, CK cocktail alone 78% 1.3 vs. control): 90%; Ki (human recombinant A1AR): 8.66 ± 1.52 µM; Ki (human recombinant A3AR): 5.96 ± 1.02 µM; % Residual Activity at 10 μM ± sd (CK1δ; 10 μM): 13 ± 24%; % Residual Activity at 40 μM ± sd (CK1δ): 25 ± 9.6%; IC50 (CK1δ): 0.36 ± 0.1 µM; Ki (human recombinant A2AAR): 3.48 ± 0.312 µM; A2AAR antagonism, in words (human recombinant A2AAR): inactive as an A2AAR antagonist
